Measurements taken from US12692254B2, “Benzimidazole inhibitors of PAD enzymes” (BRISTOL-MYERS SQUIBB COMPANY, priority 2018, dated 2026).

These molecules were tested against human PAD4 (hPAD4) (Homo sapiens, UniProt Q9UM07) (assay: RFMS human PAD4 functional assay (rapid-fire mass spectrum)). Conditions: 5 nM hPAD4 enzyme, 250 μM BAEE, 50 μM Calcium; 30 min preincubation, 90 min reaction at 37° C.
Sequence of human PAD4 (hPAD4) (Q9UM07 whole entry): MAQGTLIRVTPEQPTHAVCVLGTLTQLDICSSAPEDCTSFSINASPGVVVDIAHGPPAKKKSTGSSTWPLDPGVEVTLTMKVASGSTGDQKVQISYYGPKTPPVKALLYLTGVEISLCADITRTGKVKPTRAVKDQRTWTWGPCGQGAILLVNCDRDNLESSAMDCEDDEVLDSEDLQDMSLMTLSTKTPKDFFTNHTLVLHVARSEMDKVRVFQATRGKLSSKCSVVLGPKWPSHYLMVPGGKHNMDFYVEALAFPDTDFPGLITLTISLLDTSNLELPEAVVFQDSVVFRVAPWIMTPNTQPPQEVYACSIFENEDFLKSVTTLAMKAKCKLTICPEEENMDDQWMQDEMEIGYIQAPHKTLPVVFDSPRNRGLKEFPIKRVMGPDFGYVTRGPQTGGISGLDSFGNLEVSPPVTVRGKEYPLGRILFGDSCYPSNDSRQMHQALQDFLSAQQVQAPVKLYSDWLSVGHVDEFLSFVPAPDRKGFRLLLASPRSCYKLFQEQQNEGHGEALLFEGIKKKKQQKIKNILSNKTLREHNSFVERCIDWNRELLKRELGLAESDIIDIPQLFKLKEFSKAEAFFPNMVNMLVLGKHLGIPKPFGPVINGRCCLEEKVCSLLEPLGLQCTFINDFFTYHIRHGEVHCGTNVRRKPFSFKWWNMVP
Format: biochemical
Outline: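 PAD4 (10 nM) preincubated 30 min with compound (top final 50 μM), then BAEE substrate added in pH 7.5 HEPES buffer with DTT, 50 μM calcium, TPEN; 90 min at 37° C. After TCA quench, citrulline derivatized with phenyl glyoxal (4 mM final, 30 min, 37° C) and quantified by RapidFire MS against internal standard.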
An IC50 of 48 nM was found for `COc1cc(C(=O)N2C[C@H]3CC[C@@H]2[C@@H]3N)cc2nc(-c3cc4ccccc4n3CC3CC3)n(CCCOc3ccc(C#N)cc3)c12` [Example 260, 4-(3-{5-[(1R,4R,7R)-7-amino-2-azabicyclo[2.2.1]heptane-2-carbonyl]-2-[1-(cyclopropylmethyl)-1H-indol-2-yl]-7-methoxy-1H-1,3-benzodiazol-1-yl}propoxy)benzonitrile] in this work.
An IC50 of 82 nM was found for `COc1cc(C(=O)N2CC3CCC2[C@@H]3N)cc2nc(-c3cc4cccnc4n3CC3CC3)n(Cc3cnn(-c4ccncc4)c3)c12` (stereo partly drawn) [Example 409, (7R)-2-{2-[1-(cyclopropylmethyl)-1H-pyrrolo[2,3-b]pyridin-2-yl]-7-methoxy-1-{[1-(pyridin-4-yl)-1H-pyrazol-4-yl]methyl}-1H-1,3-benzodiazole-5-carbonyl)-2-azabicyclo[2.2.1]heptan-7-amine] in this work.
An IC50 of 1910 nM was found for `COc1cc(C(=O)N2CC(CN)C2)cc2nc(-c3cc4ccccc4n3CC3CC3)n(Cc3cnn(C)c3)c12` [Example 291, (1-{2-[1-(cyclopropylmethyl)-1H-indol-2-yl]-7-methoxy-1-[(1-methyl-1H-pyrazol-4-yl)methyl]-1H-1,3-benzodiazole-5-carbonyl}azetidin-3 yl)methanamine] in this work.
An IC50 of 34 nM was found for `COc1cc(C(=O)N2CC3CCC2[C@@H]3N)cc2nc(-c3cc4ccccc4n3CC3CC3)n(CC3CN(C(=O)c4cnccn4)C3)c12` (stereo partly drawn) [Example 436, (7R)-2-{2-[1-(cyclopropylmethyl)-1H-indol-2-yl]-7-methoxy-1-{[1-(pyrazine-2-carbonyl)azetidin-3-yl]methyl}-1H-1,3-benzodiazole-5-carbonyl}-2-azabicyclo[2.2.1]heptan-7-amine] in this work.
An IC50 of 1300 nM was found for `COc1cc(C(=O)N2CC3CCC2[C@@H]3N)cc2nc(-c3cccn3C)n(CC3CN(c4ccnc(C#N)n4)C3)c12` (stereo partly drawn) [Example 318, 4-[3-({5-[(1R,4R,7R)-7-amino-2-azabicyclo[2.2.1]heptane-2-carbonyl]-7-methoxy-2-(1-methyl-1H-pyrrol-2-yl)-1H-1,3-benzodiazo1-1-yl)methyl)azetidin-1-yl]pyrimidine-2-carbonitrile] in this work.
An IC50 of 511 nM was found for `COc1cc(C(=O)N2C[C@H]3CC[C@@H]2[C@@H]3N)cc2nc(-c3cc4cccnc4n3CC3CC3)n(CC3CN(c4cncs4)C3)c12` [Example 84, (1R,4R,7R)-2-{2-[1-(cyclopropylmethyl)-1H-pyrrolo[2,3-b]pyridin-2-yl]-7-methoxy-1-{[1-(1,3-thiazol-5-yl)azetidin-3-yl]methyl}-1H-1,3-benzodiazole-5-carbonyl}-2-azabicyclo[2.2.1]heptan-7-amine] in this work.
An IC50 of 14 nM was found for `COc1cc(C(=O)N2C[C@H]3CC[C@@H]2[C@@H]3N)cc2nc(-c3cc4ccccc4n3CC3CC3)n(CC3CN(C(=O)c4ccc(O)cc4)C3)c12` [Example 140, 4-[3-({5-[(1R,4R,7R)-7-amino-2-azabicyclo[2.2.1]heptane-2-carbonyl]-2-[1-(cyclopropylmethyl)-1H-indol-2-yl]-7-methoxy-1H-1,3-benzodiazol-1-yl}methyl)azetidine-1-carbonyl]phenol] in this work.
An IC50 of 180 nM was found for `COc1cc(C(=O)N2CC3CCC2[C@@H]3N)cc2nc(-c3cc4cccnc4n3CC3CC3)n(CC3CC(C(N)=O)C3)c12` (stereo partly drawn) [Example 475, 3-({5-[(7R)-7-amino-2-azabicyclo[2.2.1]heptane-2-carbonyl]-2-[1-(cyclopropylmethyl)-1H-pyrrolo[2,3-b]pyridin-2-yl]-7-methoxy-1H-1,3-benzodiazol-1-yl}methyl)cyclobutane-1-carboxamide] in this work.
An IC50 of 57 nM was found for `COc1cc(C(=O)N2C[C@H]3CC[C@@H]2[C@@H]3N)cc2nc(-c3cc4cccnc4n3CC3CC3)n(C[C@@H]3CCN(c4cncc(C#N)n4)C3)c12` [Example 207, 6-[(3R)-3-({5-[(1R,4R,7R)-7-amino-2-azabicyclo[2.2.1]heptane-2-carbonyl]-2-[1-(cyclopropylmethyl)-1H-pyrrolo[2,3-b]pyridin-2-yl]-7-methoxy-1H-1,3-benzodiazol-1-yl}methyl)pyrrolidin-1-yl]pyrazine-2-carbonitrile] in this work.
An IC50 of 140 nM was found for `COc1cc(C(=O)N2CC3CCC2[C@@H]3N)cc2nc(-c3cc4ccccc4n3CC3CC3)n(Cc3ccccc3)c12` (some centres unmarked) [Example 270] in this work.
An IC50 of 1020 nM was found for `COc1cc(C(=O)N2C[C@H](N)C[C@@H](F)C2)cc2nc(-c3cc4ccccc4n3CC3CC3)n(Cc3csc(C)n3)c12` [Example 285, (3R,5R)-1-{2-[1-(cyclopropylmethyl)-1H-indol-2-yl]-7-methoxy-1-[(2-methyl-1,3-thiazol-4-yl)methyl]-1H-1,3-benzodiazote-5-carbonyl}-5-fluoropiperidin-3-amine] in this work.
An IC50 of 28 nM was found for `COc1cc(C(=O)N2C[C@H](N)C[C@@H](F)C2)cc2nc(-c3cc4ccccc4n3CC3CC3)n(CC3CN(C(=O)c4ccc(C#N)cc4)C3)c12` [Example 90, 4-[3-({5-[(3R,5R)-3-amino-5-fluoropiperidine-1-carbonyl]-2-[1-(cyclopropylmethyl)-1H-indol-2-yl]-7-methoxy-1H-1,3-benzodiazol-1-yl}methyl)azetidine-1-carbonyl]benzonitrile] in this work.
An IC50 of 2980 nM was found for `COc1cc(C(=O)N2CCC[C@@H](N)C2)cc2nc(-c3cc4cccnc4n3CC3CC3)n(C3CN(S(C)(=O)=O)C3)c12` [Example 341, (3R)-1-{2-[1-(cyclopropylmethyl)-1H-pyrrolo[2,3-b]pyridin-2-yl]-1-(1-methanesulfonylazetidin-3-yl)-7-methoxy-IH-1,3-benzodiazole-5-carbonyl}piperidin-3-amine] in this work.
An IC50 of 66 nM was found for `COc1ncccc1-n1cc(Cn2c(-c3cc4ccccc4n3CC3CC3)nc3cc(C(=O)N4CC5CCC4[C@@H]5N)cc(OC)c32)cn1` (stereo partly drawn) [Example 403, (7R)-2-{2-[1-(cyclopropylmethyl)-1H-indol-2-yl]-7-methoxy-1-{[1-(2-methoxypyridin-3-yl)-1H-pyrazol-4-yl]methyl}-1H-1,3-benzodiazole-5-carbonyl)-2-azabicyclo[2.2.1]heptan-7-amine] in this work.
An IC50 of 282 nM was found for `COc1cc(C(=O)N2CC3CCC2[C@@H]3N)cc2nc(-c3cc4cccnc4n3CC3CC3)n([C@H]3C[C@@H](N)C3)c12` (stereo partly drawn) [Example 295, (1R,4R,7R)-2-{2-[1-(cyclopropylmethyl)-1H-pyrrolo[2,3-b]pyridin-2-yl]-7-methoxy-1-[(1s,3s)-3-aminocyclobutyl]-1H-1,3-benzodiazole-5-carbonyl}-2-azabicyclo[2.2.1]heptan-7-amine] in this work.
An IC50 of 87 nM was found for `COc1cc(C(=O)N2CC3CCC2[C@@H]3N)cc2nc(-c3cc4cccnc4n3CC3CC3)n(CC3CCN(c4ccnc(C#N)n4)CC3)c12` (stereo partly drawn) [Example 218, 4-[4-({5-[(1R,4R.,7R)-7-amino-2-azabicyclo[2.2.1]heptane020 carbonyl]-2-[1-(cyclopropylmethyl)-1H-pyrrolo[2,3-b]pyridin-2-yl]-7-methoxy-1H-1,3-benzodiazol-1-yl}methyl)piperidin-1-yl]pyrimidin-2-carbonitrile] in this work.
An IC50 of 69 nM was found for `COc1cc(C(=O)N2C[C@H]3CC[C@@H]2[C@@H]3N)cc2nc(-c3cc4cccnc4n3CC3CC3)n(CC3CN(C(=O)c4ccnc(C)n4)C3)c12` [Example 119, (1R,4R,7R)-2-{2-[1-(cyclopropylmethyl)-1H-pyrrolo[2,3-b]pyridin-2-yl]-7-methoxy-1-{[1-(2-methylpyrimidine-4-carbonyl)azetidin-3-yl]methyl}-1H-1,3-benzodiazole-5-carbonyl}-2-azabicyclo[2.2.1]heptan-7-amine] in this work.
